Some results are limits rather than exact numbers.

This assay deals with MOLT-4 cancer cell line. As to the kind of experiment: Cell proliferation assay, MOLT-4 cancer cell line (ATPlite).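 Also: luminescence read-out, percent growth versus compound-free DMSO wells as maximum growth, start-of-incubation signal separating growth from cell death, IC50 from logistic curve fit.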 It counts as cell-based. The note with it: Homo sapiens, MOLT-4; 72 hours incubation, ATPlite 1Step; read-out: IC50 MOLT-4 cell proliferation.
Description: 5 μL of compound solution was added and the plates were incubated for an additional 72 hours after which 25 μL of ATPlite 1Step™ (PerkinElmer, Groningen, The Netherlands) solution was added to each well. Luminescence was recorded on an Envision multimode reader. The cell signal at the start of incubation was recorded separately in order to distinguish between cell population growth and cell death. In addition, maximum growth was determined by incubation of a duplicate without compound in the presence of 0.4% DMSO. Percentage growth was used as the main y-axis signal. IC50s were fitted by non-linear regression using IDBS XLfit™5 using a 4-parameter logistic curve, yielding a maximum signal, minimum signal, hill-parameter and IC50.
On to `CCc1n[nH]c(CC)c1NC(=O)c1ccn2c1ccc1cnc(Nc3ccc(N4CCNCC4)cc3OC)nc12` [Example 97, N-(3,5-diethyl-1H-pyrazol-4-yl)-2-(2-methoxy-4-piperazin-1-yl-anilino)pyrimido[4,5-e]indolizine-7-carboxamide], for which the IC50 is under 50 nM. For the compound `CCc1cccc(CC)c1NC(=O)c1ccn2c1CCc1cnc(Nc3ccc(N4CCN(C)CC4)cc3C)nc1-2` [Example 67, N-(2,6-diethylphenyl)-2-[2-methyl-4-(4-methylpiperazin-1-yl)anilino]-5,6-dihydropyrimido[4,5-e]indolizine-7-carboxamide], the IC50 is under 50 nM. `COc1cc(C(=O)NC2CNC2)ccc1Nc1ncc2c(n1)-n1ccc(C(=O)Nc3c(C)cccc3C)c1CC2` [Example 104, 2-[4-(Azetidin-3-ylcarbamoyl)-2-methoxy-anilino]-N-(2,6-dimethylphenyl)-5,6-dihydropyrimido[4,5-e]indolizine-7-carboxamide]: the IC50 was in the range of 50 to 150 nM. As for `CCc1cccc(CC)c1NC(=O)c1ccn2c1CCc1cnc(Nc3ccc(N4CCNCC4)cc3C)nc1-2` [Example 80, N-(2,6-diethylphenyl)-2-(2-methyl-4-piperazin-1-yl-anilino)-5,6-dihydropyrimido[4,5-e]indolizine-7-carboxamide], the IC50 was under 50 nM. On to `Cc1cccc(C)c1NC(=O)c1ccn2c1CCc1cnc(Nc3ccc(C(=O)NC4CCN(C)CC4)cc3F)nc1-2` [Example 7, N-(2,6-dimethylphenyl)-2-[2-fluoro-4-[(1-methyl-4-piperidyl)carbamoyl]anilino]-5,6-dihydropyrimido[4,5-e]indolizine-7-carboxamide], for which the IC50 lay within 50 to 150 nM. For `CCc1cccc(CC)c1NC(=O)c1ccn2c1ccc1cnc(Nc3ccc(N4CCN(C)CC4)cc3OC)nc12` [Example 71, N-(2,6-diethylphenyl)-2-[2-methoxy-4-(4-methylpiperazin-1-yl)anilino]pyrimido[4,5-e]indolizine-7-carboxamide], the IC50 was under 50 nM.

As for `CCc1cccc(CC)c1NC(=O)c1ccn2c1CCc1cnc(Nc3ccc(N(C)CCCN(C)C)cc3OC)nc1-2` [Example 134, N-(2,6-diethylphenyl)-2-[4-[3-(dimethylamino)propyl-methyl-amino]-2-methoxy-anilino]-5,6-dihydropyrimido[4,5-e]indolizine-7-carboxamide], the IC50 is under 50 nM. For `CCc1nn(CCOC)c(CC)c1NC(=O)c1ccn2c1CCc1cnc(Nc3ccc(OC4CCN(C)CC4)cc3C)nc1-2` [Example 13, N-[3,5-diethyl-1-(2-methoxyethyl)pyrazol-4-yl]-2-[2-methyl-4-[(1-methyl-4-piperidyl)oxy]anilino]-5,6-dihydropyrimido[4,5-e]indolizine-7-carboxamide], the IC50 was under 50 nM. Consider `COc1cc(C(=O)NC2CCN(C)CC2)ccc1Nc1ncc2c(n1)-n1ccc(C(=O)Nc3c(C)cccc3Cl)c1CC2` [Example 35, N-(2-chloro-6-methyl-phenyl)-2-[2-methoxy-4-[(1-methyl-4-piperidyl)carbamoyl]anilino]-5,6-dihydropyrimido[4,5-e]indolizine-7-carboxamide], for which the IC50 is under 50 nM.

Regarding `COc1cc(C(=O)N[C@@H]2CCNC[C@@H]2OC)ccc1Nc1ncc2c(n1)-n1ccc(C(=O)Nc3c(C)cccc3C)c1CC2` [Example 117, N-(2,6-dimethylphenyl)-2-[2-methoxy-4-[[(3S,4R)-3-methoxy-4-piperidyl]carbamoyl]anilino]-5,6-dihydropyrimido[4,5-e]indolizine-7-carboxamide], the IC50 was under 50 nM.

With `COc1cc(C(=O)NCCN2CCCCC2)ccc1Nc1ncc2c(n1)-n1ccc(C(=O)Nc3c(C)cccc3C)c1CC2` [Example 128, N-(2,6-dimethylphenyl)-2-[2-methoxy-4-[2-(1-piperidyl)ethylcarbamoyl]anilino]-5,6-dihydropyrimido[4,5-e]indolizine-7-carboxamide], the IC50 fell in the range of 50 to 150 nM. Turning to `Cc1cccc(C)c1NC(=O)c1ccn2c1CCc1cnc(Nc3ccc(N4CCN(C)CC4)cc3OC(F)F)nc1-2` [Example 144, N-(2,6-dimethyl-phenyl)-2-[2-(difluoromethoxy)-4-(4-methylpiperazin-1-yl)anilino]-5,6-dihydropyrimido[4,5-e]indolizine-7-carboxamide], the IC50 was under 50 nM.

For `CCOc1cc(N2CCN(C)CC2)ccc1Nc1ncc2c(n1)-n1ccc(C(=O)Nc3c(CC)n[nH]c3CC)c1CC2` [Example 31, N-(3,5-diethyl-1H-pyrazol-4-yl)-2-[2-ethoxy-4-(4-methylpiperazin-1-yl)anilino]-5,6-dihydropyrimido[4,5-e]indolizine-7-carboxamide], the IC50 was in the range of 50 to 150 nM.

Take `COCCn1nc(C)c(NC(=O)c2ccn3c2CCc2cnc(Nc4ccc(N5CCN(C(=O)C6CC(F)C6)CC5)cc4OC)nc2-3)c1C` (stereo not shown) [Example 132, 2-[4-[4-(3-Fluorocyclobutanecarbonyl)piperazin-1-yl]-2-methoxy-anilino]-N-[1-(2-methoxyethyl)-3,5-dimethyl-pyrazol-4-yl]-5,6-dihydropyrimido[4,5-e]indolizine-7-carboxamide]: the IC50 was in the range of 50 to 150 nM. In the case of `CCc1cccc(CC)c1NC(=O)c1ccn2c1CCc1cnc(Nc3ccc(OCCOC)cc3OC)nc1-2` [Example 136, N-(2,6-diethylphenyl)-2-[2-methoxy-4-(2-methoxyethoxy)anilino]-5,6-dihydropyrimido[4,5-e]indolizine-7-carboxamide], the IC50 was in the range of 50 to 150 nM. In the case of `COc1cc(OC2CCN(C)CC2)ccc1Nc1ncc2ccc3c(C(=O)Nc4c(C)cccc4C)ccn3c2n1` [Example 62, N-(2,6-dimethylphenyl)-2-[2-methoxy-4-[(1-methyl-4-piperidyl)oxy]anilino]pyrimido[4,5-e]indolizine-7-carboxamide], the IC50 was under 50 nM. For `COc1cc(OCCN(C)C)ccc1Nc1ncc2c(n1)-n1ccc(C(=O)Nc3c(C)cccc3Br)c1CC2` [Example 51, N-(2-bromo-6-methyl-phenyl)-2-[4-(2-dimethylaminoethyloxy)-2-methoxy-anilino]-5,6-dihydropyrimido[4,5-e]indolizine-7-carboxamide], the IC50 was under 50 nM. `CCOc1cc(N2CCN(C)CC2)ccc1Nc1ncc2c(n1)-n1ccc(C(=O)Nc3c(C)cccc3CC)c1CC2` [Example 32, 2-[2-Ethoxy-4-(4-methylpiperazin-1-yl)anilino]-N-(2-ethyl-6-methyl-phenyl)-5,6-dihydropyrimido[4,5-e]indolizine-7-carboxamide]: the IC50 fell in the range of 50 to 150 nM.

On to `COc1cc(N2CCN(C)CC2)ccc1Nc1ncc2c(n1)-n1ccc(C(=O)Nc3c(C)n[nH]c3C)c1CC2` [Example 27, N-(3,5-dimethyl-1H-pyrazol-4-yl)-2-[2-methoxy-4-(4-methylpiperazin-1-yl)anilino]-5,6-dihydropyrimido[4,5-e]indolizine-7-carboxamide], for which the IC50 was 50 to 150 nM. On to `COc1cc(OC2CCN(C)CC2)ccc1Nc1ncc2c(n1)-n1ccc(C(=O)Nc3c(C)n[nH]c3C)c1CC2` [Example 15, N-(3,5-dimethyl-1H-pyrazol-4-yl)-2-[2-methoxy-4-[(1-methyl-4-piperidyl)oxy]anilino]-5,6-dihydropyrimido[4,5-e]indolizine-7-carboxamide], for which the IC50 was in the range of 50 to 150 nM. As for `Cc1cccc(Br)c1NC(=O)c1ccn2c1CCc1cnc(Nc3ccc(N4CCOCC4)nc3C)nc1-2` [Example 70, N-(2-bromo-6-methyl-phenyl)-2-[(2-methyl-6-morpholino-3-pyridyl)amino]-5,6-dihydropyrimido[4,5-e]indolizine-7-carboxamide], the IC50 is under 50 nM. `CCc1cccc(C)c1NC(=O)c1ccn2c1CCc1cnc(Nc3ccc(N4CCNCC4)cc3C)nc1-2` [Example 82, N-(2-ethyl-6-methyl-phenyl)-2-(2-methyl-4-piperazin-1-yl-anilino)-5,6-dihydropyrimido[4,5-e]indolizine-7-carboxamide]: the IC50 was under 50 nM. Consider `CCc1nn(CCOC)c(CC)c1NC(=O)c1ccn2c1CCc1cnc(Nc3ccc(C(=O)N(C)CCCN(C)C)cc3OC)nc1-2` [Example 88, N-[3,5-diethyl-1-(2-methoxyethyl)pyrazol-4-yl]-2-[4-[3-(dimethylamino)propyl-methyl-carbamoyl]-2-methoxy-anilino]-5,6-dihydropyrimido[4,5-e]indolizine-7-carboxamide], for which the IC50 was in the range of 50 to 150 nM.

As for `CCc1cccc(CC)c1NC(=O)c1ccn2c1CCc1cnc(Nc3ccc(N4CCN(C)CC4)cc3OC)nc1-2` [Example 20, N-(2,6-diethylphenyl)-2-[2-methoxy-4-(4-methylpiperazin-1-yl)anilino]-5,6-dihydropyrimido[4,5-e]indolizine-7-carboxamide], the IC50 is 50 to 150 nM. `COCCn1nc(C)c(NC(=O)c2ccn3c2CCc2cnc(Nc4ccc(N5CCN(C)CC5)cc4OC)nc2-3)c1C` [Example 26, N-[1-(2-methoxyethyl)-3,5-dimethyl-pyrazol-4-yl]-2-[2-methoxy-4-(4-methylpiperazin-1-yl)anilino]-5,6-dihydropyrimido[4,5-e]indolizine-7-carboxamide]: the IC50 fell in the range of 50 to 150 nM. On to `CCc1cccc(CC)c1NC(=O)c1ccn2c1CCc1cnc(Nc3ccc(N4CCOCC4)cc3C)nc1-2` [Example 83, N-(2,6-diethylphenyl)-2-(2-methyl-4-morpholino-anilino)-5,6-dihydropyrimido[4,5-e]indolizine-7-carboxamide], for which the IC50 was under 50 nM. `CCc1n[nH]c(CC)c1NC(=O)c1ccn2c1CCc1cnc(Nc3ccc(OC4CCN(C)CC4)cc3C)nc1-2` [Example 47, N-(3,5-diethyl-1H-pyrazol-4-yl)-2-[2-methyl-4-[(1-methyl-4-piperidyl)oxy]anilino]-5,6-dihydropyrimido[4,5-e]indolizine-7-carboxamide]: the IC50 was under 50 nM. As for `Cc1cc(N2CCOCC2)ccc1Nc1ncc2c(n1)-n1ccc(C(=O)Nc3c(C)cccc3C)c1CC2` [Example 56, N-(2,6-dimethylphenyl)-2-(2-methyl-4-morpholino-anilino)-5,6-dihydropyrimido[4,5-e]indolizine-7-carboxamide], the figure is under 50 nM.

The values above are taken from USRE50082E1, “(5,6-dihydro)pyrimido[4,5-e]indolizines” (NETHERLANDS TRANSLATIONAL RESEARCH CENTER B.V., priority 2014, dated 2024).
